{
  "source": "patent US9844572B2",
  "about": "“Promotion of neuronal integration in neural stem cell grafts” (Life & Brain GmbH, priority 2009, dated 2017)",
  "key": {"human Neurons [1]": {"test_system": "human Neurons", "test": "Transwell (Boyden chamber) migration assay of human neurons towards chemoattractant-soaked agarose beads", "format": "cell-based", "settings": "agarose beads soaked with 30 ng/ml factor in lower well; 20 hours", "method": "FIG. 1B Migration of human Neurons monitored after 20 hours in culture towards either medium or plated neural stem cells derived from human embryonic stem cells (lt-hESNSC) or agarose beads pre-soaked with BDNF, EGF, SDF1, SCF, PDGF, FGF2 or VEGF. Bars represent percentage of migrated neurons (*P<0.03; Statistical significance was determined in relation to medium control).\n(§1) One way to study migration at the cellular level is to use microchemotaxis chambers (Boyden chambers; see FIG. 1A) (Richards & McCullough, 1984). A membrane separates the upper and the lower part of the chamber. Cells are plated on the PO/LN coated membrane that separates the upper and the lower well. Chemoattractants are introduced in the well of the lower compartment e.g., by soaking agarose beads (affi-gel blue gel) with the corresponding chemoattractants. 100 μl of the pre-soaked beads are introduced in the lower well and covered with medium before placing the upper well on top. The chemoattractant will be released over time, thus creating a chemoattractive gradient. If the agent acts as a chemoattractant, the attached cells will migrate through the filter towards the gradient of the attracting factor. Small pore sizes (8 μm) require active migration rather than passive falling of the cells through the filter.\nIn this study agarose beads were soaked with either 30 ng/ml EGF, BDNF, SDF1, SCF, PDFG-AA, FGF2 or VEGF (FIG. 1B). The chemoattractive effect of NSCs on neurons was studied by plating lt-hESNSC directly in the PO/LN coated lower well before placing the upper well with the attached neurons on top. After a culture period of 20 hours, chambers were fixed with 4% PFA for 10 min. Cells that had not migrated and were still on the upper side of the membrane were scraped off, while the migrated cells on the lower side were DAPI stained and counted."}, "human Neurons [2]": {"test_system": "human Neurons", "test": "Dunn chamber migration assay (chemotaxis of immature neurons)", "format": "cell-based", "settings": "factor 200 ng/ml in outer well only; 6 h recording", "method": "FIG. 7A Dunn chamber migration assay. Schematic representation of a direct-viewing Dunn chemotaxis chamber showing the position of the inner well, the bridge, the outer well and the overlying coverslip (a) (Zicha et al., 1991 1998, Zhang et al., 2003). Adopted from Hawksley. Calculation of the forward migration index (FMI) during a 6 h recording period. FMI values can be either positive or negative, depending on the direction in which the cell is migrating (b).\nFIG. 7B Directionality analysis of cell movement using scatter plots of cell displacement (c-i). The diagrams orientate such that the position of the outer well of the chamber are vertical (y direction). Each point represents the final position of a cell at the end of the recording period of 6-h; the starting point of migration is fixed at the intersection of the two axes. As control migration of human neurons was monitored in medium only (c). For assessing chemokinesis, equal amounts of FGF2 (d) or VEGF (e) were added to both the outer and the inner wells of the chamber. Chemotaxis was tested by placing FGF2 (f) or VEGF (g) in the outer well only. Migration of human neurons treated with BFBF1120 was monitored towards a FGF2 (h) and VEGF (i) gradient.\nChemotaxis of immature neurons was directly viewed and recorded in stable concentration gradients of FGF2 (200 ng/ml) or VEGF (200 ng/ml), respectively, with or without the addition of BIBF1120 ([…]) using a Dunn chemotaxis chamber (Allen et al., 1998 1998, Zhang et al., 2003). This device is made from a Helber bacteria counting chamber by grinding a circular well in the central platform to leave a 1 mm-wide annular bridge between the inner and the outer well. Chemoattractants added to the outer well of the chamber will diffuse across the bridge to the inner well and form a linear steady gradient within ˜30 min after loading the chamber (Zicha et al., 1991; Webb et al., 1996). To study chemotaxis, the outer well of the Dunn chamber can be filled with medium containing a chemoattractant, whereas the concentric inner well is filled with medium only. Coverslips carrying the cultured cells are inverted and placed onto the chamber. Cell locomotion is recorded through the annular bridge between the concentric inner and outer well. For assessing chemokinesis, the outer and inner wells are filled with equal concentrations of the chemoattractant. A period of 6 h was chosen to assess cell migration.\nTo determine the efficiency of forward migration during the 6 h recording period, the FMI was calculated as the ratio of forward progress to the total path length (Foxman et al., 1999; Zhang et al.)."}, "[3]": {"test_system": "immature neurons in the presence of neural stem/progenitor cells (hES-NSC70+N30)", "test": "Boyden chamber assay of neural stem/progenitor cells mixed with immature neurons (hES-NSC70+N30) pre-incubated with inhibitor", "format": "cell-based, human", "settings": "hES-NSC70+N30 pre-incubated for 30 minutes with agent", "method": "Bars represent the percentage of migrated neurons after 20 hours in culture towards medium or a chemoattractant either with or without VEGF R2-AB or endostatin treatment. Cell numbers were normalised to the number of plated neurons (*P≦0.02; statistical significance was determined in relation to the control).\nas §1, with “If the agent acts as a chemoattractant, the attached cells will migrate through the filter towards the gradient of the attracting factor. Small pore sizes (8 μm) require active migration rather than passive falling of the cells through the filter.” left out\nIn this study agarose beads were soaked with either 30 ng/ml EGF, BDNF, SDF1, SCF, PDFG-AA, FGF2 or VEGF (FIG. 1B). […] Cells that had not migrated and were still on the upper side of the membrane were scraped off, while the migrated cells on the lower side were DAPI stained and counted. […]"}, "primary tumor": {"test_system": "primary tumor", "settings": "cited from earlier work"}, "[4]": {"test_system": "lt-hESNSC mixed with immature neurons on hippocampal rat slice cultures", "test": "Transplantation onto rat hippocampal slice cultures (migration of human neurons from mixed grafts)", "format": "cell-based", "method": "Using a vibroslicer, 400 μm horizontal sections were generated from the hippocampus of 9-10 day-old Wistar rats. The slices included the dentate gyrus and the entorhinal and temporal cortex (Scheffler et al., 2003; Opitz et al., 2007). They were transferred onto a polyester membrane and cultivated at 35° C., 5% CO2 and saturated air humidity in an initial culture medium containing 25% normal horse serum, which was gradually replaced after 3-5 days by chemically defined, serum-free culture medium based on DMEM/F12, N2 supplement and B27 supplement. Medium was changed every other day and 5-7 days after explantation a cell suspension of 50 000 cells in a 1 μl volume was spotted onto the entorhinal cortex of the slice using an injection device.\nFor immunohistochemical analysis of slice cultures (FIG. 4), cultures were fixed in 4% paraformaldehyde for 4 hours and subsequently washed several times with PBS. Slices were permeabilized/blocked with 0.1% Triton X-100+10% FCS for 6 hours at 25° C. Incubation with primary antibody was for 16 hours at room temperature, followed by washing steps with PBS for 5 hours. Incubation with the secondary antibodies was for 2 hours at room temperature.\nTo further investigate whether endostatin can also interfere with the chemoattractive effect of neural stem/progenitor cells on immature neurons in a context closer to an in vivo situation, hippocampal rat slice culture experiments were performed. HES-NSC70+N30 were pre-incubated for 30 minutes in 30 μl Cytocon™-Buffer II with either 2 μl stock solution endostatin (n=9) or with 2 μl of the solvent of endostatin (citric-phosphate buffer) as control (n=9), and then deposited on the entorhinal cortex of hippocampal slice cultures. Cultures of pure human neurons were transplanted as positive control (n=9). The slices were further cultured for 18 days after deposition of the cells. 1 μl/ml endostatin stock solution was continuously applied every day to the slice media.\nTo further investigate whether BIBF1120 can also interfere with the chemoattractive effect of neural stem/progenitor cells on immature neurons, hippocampal rat slice culture experiments were performed. Lt-hESNSC mixed with purified DCX-EGFP positive neurons (30.0000 lt-hESNSC mixed with 100.000 purified neurons per μl) were pre-incubated for 30 min. in Cytocon™-Buffer II with or without 2 μg/ml BIBF1120, respectively, and then deposited on the entorhinal cortex (EC) of hippocampal slice cultures. The slices were further cultured for 7 days after deposition of the cells. 2 μg/ml BIBF1120 was continuously applied every day to the slice media."}, "[5]": {"test_system": "VEGF-induced angiogenesis", "settings": "rabbit corneal model; cited from earlier work"}, "KDR": {"target": "KDR (Homo sapiens, UniProt P35968)", "sequence (P35968 20-1356)": "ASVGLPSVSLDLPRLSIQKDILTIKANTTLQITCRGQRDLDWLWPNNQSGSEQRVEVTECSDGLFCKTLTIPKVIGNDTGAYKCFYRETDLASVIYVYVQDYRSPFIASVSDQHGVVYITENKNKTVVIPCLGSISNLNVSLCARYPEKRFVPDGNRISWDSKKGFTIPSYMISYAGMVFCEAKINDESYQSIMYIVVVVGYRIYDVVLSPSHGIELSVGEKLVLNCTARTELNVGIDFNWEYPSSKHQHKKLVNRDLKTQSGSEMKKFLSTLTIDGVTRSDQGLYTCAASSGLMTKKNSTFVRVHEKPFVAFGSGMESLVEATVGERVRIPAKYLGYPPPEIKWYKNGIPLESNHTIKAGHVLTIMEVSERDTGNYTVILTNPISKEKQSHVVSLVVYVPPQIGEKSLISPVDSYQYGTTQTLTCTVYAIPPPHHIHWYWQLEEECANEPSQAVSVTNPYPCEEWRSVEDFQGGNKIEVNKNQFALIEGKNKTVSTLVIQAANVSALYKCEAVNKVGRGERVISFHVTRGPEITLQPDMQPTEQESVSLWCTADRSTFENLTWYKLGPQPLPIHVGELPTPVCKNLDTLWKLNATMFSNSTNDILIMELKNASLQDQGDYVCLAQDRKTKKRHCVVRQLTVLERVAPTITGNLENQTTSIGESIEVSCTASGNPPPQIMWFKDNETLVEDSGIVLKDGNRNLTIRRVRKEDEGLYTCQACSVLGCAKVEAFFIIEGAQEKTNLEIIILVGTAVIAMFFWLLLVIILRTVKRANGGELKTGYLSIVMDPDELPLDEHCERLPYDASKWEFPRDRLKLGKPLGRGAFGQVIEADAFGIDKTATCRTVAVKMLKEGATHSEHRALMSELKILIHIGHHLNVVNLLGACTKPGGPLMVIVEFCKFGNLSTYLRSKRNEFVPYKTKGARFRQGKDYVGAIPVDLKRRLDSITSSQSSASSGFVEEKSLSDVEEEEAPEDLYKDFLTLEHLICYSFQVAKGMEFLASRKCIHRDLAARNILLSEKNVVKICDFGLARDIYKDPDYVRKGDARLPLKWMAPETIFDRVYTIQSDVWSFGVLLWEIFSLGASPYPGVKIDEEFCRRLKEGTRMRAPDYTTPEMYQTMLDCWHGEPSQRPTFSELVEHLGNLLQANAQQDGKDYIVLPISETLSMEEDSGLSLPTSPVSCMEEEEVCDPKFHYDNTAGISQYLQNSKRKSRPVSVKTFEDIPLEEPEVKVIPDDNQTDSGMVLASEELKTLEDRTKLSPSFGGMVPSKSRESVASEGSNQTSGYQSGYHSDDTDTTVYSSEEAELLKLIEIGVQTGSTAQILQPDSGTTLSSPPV", "settings": "cited from earlier work"}},
  "note": "Entries after “also recorded” stand apart in the source; their conditions may differ.",
  "data": [
    {"substance": "SDF1: soluble factor tested as neuronal chemoattractant", "values": [
      {"measurement": "chemoattractive effect on neurons in the chamber migration assay", "setting": "human Neurons [1]", "result": "neuronal chemoattractants"}
    ]},
    {"substance": "PDGF: platelet-derived growth factor, tested as neuronal chemoattractant", "values": [
      {"measurement": "chemoattractive effect on neurons in the chamber migration assay", "setting": "human Neurons [1]", "result": "neuronal chemoattractants; also recorded: significant chemoattractive effect"}
    ]},
    {"substance": "VEGF", "values": [
      {"measurement": "chemoattractive effect on neurons in the chamber migration assay", "setting": "human Neurons [1]", "result": "neuronal chemoattractants; also recorded: significant chemoattractive effect"},
      {"measurement": "chemotaxis of human neurons towards gradient of the factor", "setting": "human Neurons [2]", "result": "neuronal chemoattractants; also recorded: clear directionality of migration"}
    ]},
    {"substance": "endostatin", "values": [
      {"measurement": "migration of immature neurons towards PDGF gradient", "setting": "[3]; agarose beads releasing PDGF", "result": "additionally enhanced the effect"},
      {"measurement": "migration of immature neurons towards media", "setting": "[3]; plain agarose beads, 20 hours, vs solvent control", "result": "significantly enhanced migration; also recorded: most prominent enhancement of migration"},
      {"measurement": "toxicity during continued treatment", "setting": "primary tumor; in vivo", "result": "no toxicity"},
      {"measurement": "tumor regression in size", "setting": "primary tumor; recombinant E. coli-derived endostatin added at a site remote from the primary tumor", "result": "over 150 fold"},
      {"measurement": "tumor size after regression", "setting": "primary tumor; recombinant E. coli-derived endostatin", "result": "less than 1 mm^3"},
      {"measurement": "migration of single human neurons away from the transplantation core (horizontal)", "setting": "[4]; hES-NSC70+N30, endostatin pre-incubation and daily application, day 18", "result": "up to 800 μm"},
      {"measurement": "migration horizontally over the slice compared to control population", "setting": "[4]; hES-NSC70+N30, endostatin treated, 18 days after transplantation", "result": "enhanced migration and integration capacity"},
      {"measurement": "depth reached along the z-axis", "setting": "[4]; hES-NSC70+N30, endostatin treated, day 18", "result": 350, "unit": "μm"}
    ]},
    {"substance": "ATWLPPR", "values": [
      {"measurement": "VEGF-induced angiogenesis", "setting": "[5]", "result": "abolished"},
      {"measurement": "VEGF binding to cell-displayed KDR", "setting": "KDR", "result": "abolish"}
    ]},
    {"substance": "FGF2: fibroblast growth factor 2, an 18 kDa protein", "values": [
      {"measurement": "chemoattractive effect on neurons in the chamber migration assay", "setting": "human Neurons [1]", "result": "neuronal chemoattractants; also recorded: significant chemoattractive effect"},
      {"measurement": "chemotaxis of human neurons towards gradient of the factor", "setting": "human Neurons [2]", "result": "neuronal chemoattractants; also recorded: clear directionality of migration"}
    ]}
  ]
}
